Patent US20170226139A1, “CRYSTALLINE SALTS OF (Z)-O-OCTADEC-9-EN-1-YL O,O-DIHYDROGEN PHOSPHOROTHIOATE” (priority 2013, published 2017)
pEC50: −log10 of the molar value. Like-named read-outs stand apart in the source and are kept apart here.

Columns and labels:
Human LPA4 = molecular target: T1, Human LPA4 (Homo sapiens, UniProt Q99677); test: Calcium-mobilization assay (FURA-2), human LPA4 in CHO cells; type: cell-based
T1 construct: expressed in transfected cells; host or cells: CHO
Protocol: (§1) We investigated structure-activity relationships across species, LPAR subtypes and between Rx100 and two known process impurities encountered in manufacture: Rx103 (‘E’ isomer) and Rx200 (oleyl phosphate and impurity, which can be an Rx100 degradant along with oleyl alcohol). Rx100, Rx103, Rx200 and native LPA were investigated at different human LPAR subtypes. In addition, the activity of these compounds was evaluated at LPA2 receptors from the rhesus, rat and mouse species. Human LPA1/2/3 subtypes were transfected into mouse embryonic fibroblasts (MEF) or rat hepatoma cells (RH7777)—both of which are normally non-responsive or null to LPA. Human LPA4 was transfected into Chinese hamster ovary (CHO) cells and LPA5 into the B103 neuroblastoma cell line. […] The B103 rat neuroblastoma cell line is endogenously nonresponsive to LPA but expresses heterologous LPA5 receptors well. […] LPAR activation elicits a G-protein-mediated transient rise in intracellular calcium level that is proportional to the concentration of LPA applied. The intracellular calcium level was quantified by the calcium-selective fluorescent indicator FURA-2 (e.g., increased intracellular calcium surge=increased fluorescence).

[1] = molecular target: LPA2 receptors from the rhesus (Macaca mulatta, UniProt I2CXV3); test: Calcium-mobilization assay (FURA-2), rhesus LPA2; type: cell-based
Sequence of LPA2 receptors from the rhesus (I2CXV3 1-351): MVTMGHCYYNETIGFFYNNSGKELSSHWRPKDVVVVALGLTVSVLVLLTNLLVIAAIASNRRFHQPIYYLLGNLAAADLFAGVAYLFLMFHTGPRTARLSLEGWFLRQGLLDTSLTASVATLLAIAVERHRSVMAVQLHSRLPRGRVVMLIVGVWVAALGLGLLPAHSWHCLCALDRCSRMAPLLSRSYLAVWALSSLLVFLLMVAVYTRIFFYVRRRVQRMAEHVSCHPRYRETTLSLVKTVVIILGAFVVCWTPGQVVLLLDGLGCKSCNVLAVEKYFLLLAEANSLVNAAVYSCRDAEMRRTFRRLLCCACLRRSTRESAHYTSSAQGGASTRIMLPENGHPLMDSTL
Protocol: as §1

Control CHO = test: Calcium-mobilization assay, untransfected Control CHO cells; type: cell-based, Chinese hamster
Protocol: as §1

[2] = molecular target: T2, LPA2 receptors from the mouse (Mus musculus, UniProt Q9JL06); test: Calcium-mobilization assay (FURA-2), mouse LPA2; type: cell-based
T2 construct: expressed in transfected cells
T2 sequence (Q9JL06 whole entry): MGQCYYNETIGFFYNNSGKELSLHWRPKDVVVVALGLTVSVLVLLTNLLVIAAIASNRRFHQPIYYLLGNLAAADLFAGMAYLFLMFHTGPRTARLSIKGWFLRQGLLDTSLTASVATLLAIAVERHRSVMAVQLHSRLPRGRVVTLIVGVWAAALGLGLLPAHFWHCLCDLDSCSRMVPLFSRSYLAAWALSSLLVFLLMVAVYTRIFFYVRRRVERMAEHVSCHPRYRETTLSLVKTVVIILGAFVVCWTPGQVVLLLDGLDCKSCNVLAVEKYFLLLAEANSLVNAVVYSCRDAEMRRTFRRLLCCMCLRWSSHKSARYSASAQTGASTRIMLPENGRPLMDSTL
Protocol: as §1

Human LPA3 = molecular target: T3, Human LPA3 (Homo sapiens, UniProt Q9UBY5); test: Calcium-mobilization assay (FURA-2), human LPA3 transfected cells; type: cell-based; details: for EC50: EC50 [nM]; for EC50 / Emax (% of LPA) / pEC50: mean; for pEC50: read-out: EC50
T3 construct: expressed in transfected cells; host or cells: mouse embryonic fibroblasts (MEF) or rat hepatoma RH7777
T3 sequence (Q9UBY5 1-353): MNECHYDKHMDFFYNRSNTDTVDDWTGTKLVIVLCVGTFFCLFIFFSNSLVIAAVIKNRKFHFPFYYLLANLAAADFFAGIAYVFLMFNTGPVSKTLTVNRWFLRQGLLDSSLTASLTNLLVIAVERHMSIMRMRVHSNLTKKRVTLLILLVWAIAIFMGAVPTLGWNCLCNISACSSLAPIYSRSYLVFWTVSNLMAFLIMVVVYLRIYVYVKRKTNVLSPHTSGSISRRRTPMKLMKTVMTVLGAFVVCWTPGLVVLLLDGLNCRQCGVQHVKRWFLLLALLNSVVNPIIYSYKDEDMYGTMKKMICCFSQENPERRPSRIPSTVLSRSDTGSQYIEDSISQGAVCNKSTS
Protocol: as §1

Human LPA1 = molecular target: T4, Human LPA1 (Homo sapiens, UniProt Q92633); test: Calcium-mobilization assay (FURA-2), human LPA1 transfected cells; type: cell-based; details: for EC50: EC50 [nM]; for EC50 / Emax (% of LPA) / pEC50: mean; for pEC50: read-out: EC50
T4 construct: expressed in transfected cells; host or cells: mouse embryonic fibroblasts (MEF)
T4 sequence (Q92633 whole entry): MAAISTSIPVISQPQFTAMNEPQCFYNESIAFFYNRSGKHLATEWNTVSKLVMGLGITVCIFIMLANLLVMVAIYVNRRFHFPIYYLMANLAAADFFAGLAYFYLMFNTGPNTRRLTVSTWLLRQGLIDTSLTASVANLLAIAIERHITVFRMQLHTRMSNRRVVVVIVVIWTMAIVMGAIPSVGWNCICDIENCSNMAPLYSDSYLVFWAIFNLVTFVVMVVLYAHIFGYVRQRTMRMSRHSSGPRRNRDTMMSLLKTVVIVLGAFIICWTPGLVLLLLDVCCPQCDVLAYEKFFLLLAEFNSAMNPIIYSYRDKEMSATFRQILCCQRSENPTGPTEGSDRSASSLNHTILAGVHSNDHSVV
Protocol: as §1

LPA5 = molecular target: T5, LPA5 (Homo sapiens, UniProt Q9H1C0); test: Calcium-mobilization assay (FURA-2), LPA5 in B103 neuroblastoma cells; type: cell-based
T5 construct: expressed in transfected cells; host or cells: B103 rat neuroblastoma
T5 sequence (Q9H1C0 whole entry): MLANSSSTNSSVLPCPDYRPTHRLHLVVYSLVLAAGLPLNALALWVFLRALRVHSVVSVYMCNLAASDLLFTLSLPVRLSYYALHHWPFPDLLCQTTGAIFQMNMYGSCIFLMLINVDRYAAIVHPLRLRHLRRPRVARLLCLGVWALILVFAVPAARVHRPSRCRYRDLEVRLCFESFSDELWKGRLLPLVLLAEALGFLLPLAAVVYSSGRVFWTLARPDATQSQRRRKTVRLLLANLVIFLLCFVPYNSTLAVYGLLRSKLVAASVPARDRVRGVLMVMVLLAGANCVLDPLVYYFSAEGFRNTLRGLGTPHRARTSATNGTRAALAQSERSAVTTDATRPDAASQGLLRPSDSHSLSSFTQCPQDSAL
Protocol: as §1

[3] = molecular target: LPA2 receptors from the rat (Rattus norvegicus, UniProt A0ABK0LT65); test: Calcium-mobilization assay (FURA-2), rat LPA2; type: cell-based
Sequence of LPA2 receptors from the rat (A0ABK0LT65 1-348): as the sequence (Q9JL06 whole entry) above, with A153V, A189V, Y211F, M310T, S316H, R321H, A324S, Q327R, R341H counted along it
Protocol: as §1

[4] = test system: lysophosphatidic acid receptor (LPAR); test: Calcium-mobilization assay, overall statements for all species and LPAR subtypes tested; type: cell-based
Source text: The compound was medicinally designed as an LPA analog with the goal of decreasing the otherwise rapid metabolism of LPA itself. […] These receptors are ubiquitous by tissue and in those eukaryotes investigated. […] Thus, the mechanism of drug action for GI-ARS protection is activation of the transmembrane G protein-coupled lysophosphatidic acid receptor (LPAR) and, more specifically, the LPAR2 GPCR subtype. The primary pharmacodynamics is that LPAR2 activation leads to a cascade of intracellular events that switch cells from an apoptotic to a repair/regenerative pathway.
as §1
Oleyl alcohol is, of course, a common component of many non-toxic ingested or dermally applied substances.

Human LPA2 = Human LPA2 (Homo sapiens, UniProt Q9HBW0); test: Calcium-mobilization assay (FURA-2), human LPA2 transfected cells; type: cell-based; set-up: expressed in transfected cells; host or cells: mouse embryonic fibroblasts (MEF) or rat hepatoma RH7777
Sequence of Human LPA2 (Q9HBW0 whole entry): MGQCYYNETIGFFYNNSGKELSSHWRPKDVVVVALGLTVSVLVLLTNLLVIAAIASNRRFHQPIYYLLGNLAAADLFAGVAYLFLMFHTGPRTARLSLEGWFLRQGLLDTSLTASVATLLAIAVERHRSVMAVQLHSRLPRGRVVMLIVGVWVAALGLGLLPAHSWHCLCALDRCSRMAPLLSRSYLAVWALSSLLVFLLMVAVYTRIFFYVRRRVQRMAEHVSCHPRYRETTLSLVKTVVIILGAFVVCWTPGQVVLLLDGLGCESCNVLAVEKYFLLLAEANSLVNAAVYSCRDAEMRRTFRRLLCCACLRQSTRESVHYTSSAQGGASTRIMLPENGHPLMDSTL
Protocol: as §1

[5] = RH7777, read-out: Emax (% of LPA)

T1 sequence (Q99677 whole entry): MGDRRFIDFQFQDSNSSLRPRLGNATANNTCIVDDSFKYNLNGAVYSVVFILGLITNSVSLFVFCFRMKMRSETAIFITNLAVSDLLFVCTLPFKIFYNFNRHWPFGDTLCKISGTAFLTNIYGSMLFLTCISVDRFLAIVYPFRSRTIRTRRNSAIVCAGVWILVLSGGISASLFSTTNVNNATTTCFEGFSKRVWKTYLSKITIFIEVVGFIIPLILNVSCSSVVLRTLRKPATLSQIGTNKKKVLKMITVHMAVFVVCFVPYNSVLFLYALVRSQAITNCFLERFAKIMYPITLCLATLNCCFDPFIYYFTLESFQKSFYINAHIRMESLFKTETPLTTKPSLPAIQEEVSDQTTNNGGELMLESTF

## CCCCCCCC/C=C/CCCCCCCCOP(O)(O)=S [Rx103]
Human LPA4
  pEC50: < 5.30
Human LPA4; CHO, read-out: Emax (% of LPA)
  Emax: 88%
[1]
  pEC50: 6.88
[1]; read-out: Emax (% of LPA)
  Emax: 90%
Control CHO; Cricetulus griseus, CHO
  pEC50: < 5.30
Control CHO; Cricetulus griseus, CHO, read-out: Emax (% of LPA)
  Emax: 12%
[2]
  pEC50: 6.45
[2]; read-out: Emax (% of LPA)
  Emax: 100%
Human LPA3; LPA3 DKO MEF, human
  EC50: 61 nM
Human LPA3; LPA3 RH7777, human
  EC50: 74 nM
Human LPA3; [5]
  Emax: 77%
Human LPA3; read-out: Emax (% of LPA)
  Emax: 100%
Human LPA1; LPA1 DKO MEF, human
  EC50: 367 nM
Human LPA1; LPA1 RH7777, human
  EC50: 1710 nM
Human LPA1; [5]
  Emax: 75%
Human LPA1; read-out: Emax (% of LPA)
  Emax: 90%
LPA5
  pEC50: 7.08
LPA5; B103, read-out: Emax (% of LPA)
  Emax: 103%
[3]
  pEC50: 6.88
[3]; read-out: Emax (% of LPA)
  Emax: 87.6%
[4]
  LPAR activation: has activity but has a uniformly reduced EC50 and Emax
Human LPA2
  pEC50: 6.62
Human LPA2; read-out: Emax (% of LPA)
  Emax: 70%

## CCCCCCCC/C=C\CCCCCCCCOP(=O)(O)O [Rx200, oleyl phosphate]
Human LPA4; LPA4 CHO, human, mean
  Emax (% of LPA): 70 % of LPA
Human LPA4; LPA4 CHO, human, mean, read-out: EC50
  pEC50: 6.13
[1]; LPA2 DKO MEF, rhesus, mean
  EC50 [nM]: No
  Emax (% of LPA): No
Control CHO; Control CHO (untransfected; endogenously expresses LPA1)
  Emax (% of LPA): 12%
Control CHO; Control CHO (untransfected; endogenously expresses LPA1), read-out: EC50
  pEC50: 6.02
[2]; LPA2 DKO MEF, mouse, mean
  EC50 [nM]: No
  Emax (% of LPA): No
Human LPA3; LPA3 DKO MEF, human
  Emax (% of LPA): 34 % of LPA
  pEC50: < 5.30
Human LPA3; LPA3 RH7777, human
  Emax (% of LPA): 61 % of LPA
  pEC50: 6.13
Human LPA1; LPA1 DKO MEF, human
  Emax (% of LPA): 53 % of LPA
  pEC50: 5.87
Human LPA1; LPA1 RH7777, human
  Emax (% of LPA): 83 % of LPA
  pEC50: 6.48
LPA5; LPA5 B103, human, mean
  Emax (% of LPA): 100 % of LPA
LPA5; LPA5 B103, human, mean, read-out: EC50
  pEC50: 6.78
[3]; LPA2 DKO MEF, rat, mean
  EC50 [nM]: No
  Emax (% of LPA): No
[4]
  LPAR activation: virtually inactive
Human LPA2; LPA2 DKO MEF, human, mean
  EC50 [nM]: No
  Emax (% of LPA): No
